This is an account of results in patent publication JP2006083192A, “サイトカイン異常産生又は接着作用の亢進に伴う疾患を予防又は治療するための薬剤” (Otsuka Pharmaceutical Co Ltd, priority 1996, dated 1998).

Common to all, as to format: cell-based
The test system of test [1] is IL-6 production (IL−6産生). In words: 薬理試験5 IL−6産生抑制作用 (inhibition of IL-6 production, human whole blood). To be noted: same method as pharmacological test 3 (human whole blood, LPS, 37℃, 24 h).
In test [2] the test system is IL-1 production (IL−1産生). In words: 薬理試験4 IL−1産生抑制作用 (inhibition of IL-1 production, human whole blood). To be noted: same method as pharmacological test 3 (human whole blood, LPS, 37℃, 24 h).
Test [3] deals with IFN-γ production (IFN−γ産生). Kind of test: 薬理試験6 IFN−γ産生抑制作用 (inhibition of IFN-γ production, human whole blood). As to conditions: concanavalin A (ConA), 37℃, 48 h, ELISA.

Consider `CCOc1ccc(-c2nc(-c3cccc(C(=O)O)n3)cs2)cc1OCC` [実施例2], for which the figures for the IC50 in test [1], in test [2] and in test [3] were at least 100 µM, 80 µM and 5 µM, respectively.
